According to ChEMBL document CHEMBL1201862, “PubChem BioAssay data set” (2004):
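1) Cells in 96-well plates. 2) Compound, 48 h, 5 concentrations. 3) Linear interpolation between surrounding doses. 4) Unreached endpoint = highest concentration. GI50: concentration for 50% inhibition of growth.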 The source made the active and inactive calls. No stated cut-off is given here; in the data, active = GI50 up to about 1.1 µM and inactive = higher.

Experiments:
Test in all cases: inhibition of tumour cell growth, NCI panel, 48 h
SNB-19 = test system: SNB-19
M14 = test system: M14
OVCAR-4 = test system: OVCAR-4
SK-MEL-5 = test system: SK-MEL-5
NCI/ADR-RES = test system: NCI/ADR-RES
CCRF-CEM = test system: CCRF-CEM
NCI-H23 = test system: NCI-H23
UACC-257 = test system: UACC-257
T47D = test system: T47D
HOP-92 = test system: HOP-92
SNB-75 = test system: SNB-75
K562 = test system: K562
U-251 = test system: U-251
SF-268 = test system: SF-268
MDA-N = test system: MDA-N
PC-3 = test system: PC-3
OVCAR-3 = test system: OVCAR-3
SR = test system: SR
NCI-H460 = test system: NCI-H460
SN12C = test system: SN12C
IGROV-1 = test system: IGROV-1
MCF7 = test system: MCF7
COLO 205 = test system: COLO 205
DU-145 = test system: DU-145
RXF 393 = test system: RXF 393
TK-10 = test system: TK-10
HL-60 = test system: HL-60
RPMI-8226 = test system: RPMI-8226
SK-MEL-28 = test system: SK-MEL-28
KM12 = test system: KM12
MOLT-4 = test system: MOLT-4
786-0 = test system: 786-0
MDA-MB-435 = test system: MDA-MB-435
HT-29 = test system: HT-29
MDA-MB-231 = test system: MDA-MB-231
Malme-3M = test system: Malme-3M
SK-OV-3 = test system: SK-OV-3
ACHN = test system: ACHN
SF-539 = test system: SF-539
SF-295 = test system: SF-295
OVCAR-5 = test system: OVCAR-5
HCC 2998 = test system: HCC 2998
HCT-15 = test system: HCT-15
SW-620 = test system: SW-620
NCI-H226 = test system: NCI-H226
HCT-116 = test system: HCT-116
A549 = test system: A549
UACC-62 = test system: UACC-62
OVCAR-8 = test system: OVCAR-8
BT-549 = test system: BT-549
EKVX = test system: EKVX
NCI-H522 = test system: NCI-H522
Hs-578T = test system: Hs-578T
HOP-62 = test system: HOP-62
A498 = test system: A498
CAKI-1 = test system: CAKI-1
LOX IMVI = test system: LOX IMVI
UO-31 = test system: UO-31
SK-MEL-2 = test system: SK-MEL-2

Measured: GI50

CCNC1=C(NC(=O)CC)C(=O)c2ccccc2C1=O
64.3 µM: HCT-15
inactive: SNB-19 > 100 µM | M14 31.7 µM | OVCAR-4 87.3 µM | SK-MEL-5 54.1 µM | NCI/ADR-RES 58.7 µM | CCRF-CEM 56 µM | NCI-H23 70.8 µM | UACC-257 30.2 µM | T47D > 100 µM | HOP-92 > 100 µM | SNB-75 > 100 µM | K562 > 100 µM | U-251 > 100 µM | SF-268 > 100 µM | MDA-N > 100 µM | PC-3 42.6 µM | OVCAR-3 32.1 µM | SR > 100 µM | NCI-H460 > 100 µM | SN12C 73.3 µM | IGROV-1 > 100 µM | MCF7 > 100 µM | COLO 205 46.5 µM | DU-145 > 100 µM | RXF 393 48.1 µM | TK-10 > 100 µM | HL-60 74.8 µM | RPMI-8226 > 100 µM | SK-MEL-28 > 100 µM | KM12 > 100 µM | MOLT-4 > 100 µM | 786-0 > 100 µM | MDA-MB-435 > 10 µM | HT-29 34.8 µM | MDA-MB-231 > 100 µM | Malme-3M 22.9 µM | SK-OV-3 > 100 µM | ACHN > 100 µM | SF-539 > 100 µM | SF-295 > 100 µM | OVCAR-5 > 100 µM | HCC 2998 73.1 µM | SW-620 60.4 µM | NCI-H226 > 100 µM | HCT-116 36.7 µM | A549 > 100 µM | UACC-62 74.5 µM | OVCAR-8 79.1 µM | BT-549 > 100 µM | EKVX > 100 µM | NCI-H522 46.1 µM | Hs-578T > 100 µM | HOP-62 > 100 µM

CCOC(=O)C(C)c1nc2cc(C(F)(F)F)ccc2[nH]c1=O (stereo not given)
> 100 µM: HCT-15
inactive: SNB-19 > 100 µM | M14 > 100 µM | OVCAR-4 81.5 µM | A498 64.3 µM | CAKI-1 > 100 µM | SK-MEL-5 42.2 µM | NCI/ADR-RES 47.8 µM | CCRF-CEM > 100 µM | NCI-H23 81.7 µM | UACC-257 69.8 µM | LOX IMVI > 100 µM | T47D 15.4 µM | HOP-92 71.1 µM | SNB-75 > 100 µM | K562 59.8 µM | U-251 > 100 µM | SF-268 > 100 µM | MDA-N > 100 µM | PC-3 49 µM | OVCAR-3 82 µM | NCI-H460 > 100 µM | SN12C > 100 µM | MCF7 > 100 µM | COLO 205 > 100 µM | DU-145 84.5 µM | RXF 393 > 100 µM | TK-10 > 100 µM | HL-60 62.7 µM | RPMI-8226 51.9 µM | SK-MEL-28 > 100 µM | UO-31 > 100 µM | KM12 > 100 µM | MOLT-4 85.5 µM | 786-0 > 100 µM | MDA-MB-435 > 100 µM | HT-29 > 100 µM | MDA-MB-231 > 100 µM | Malme-3M > 100 µM | SK-OV-3 > 100 µM | ACHN > 100 µM | SF-539 > 100 µM | SF-295 49.2 µM | OVCAR-5 > 100 µM | HCC 2998 > 100 µM | SW-620 > 100 µM | NCI-H226 > 100 µM | HCT-116 88.9 µM | A549 > 100 µM | UACC-62 > 100 µM | OVCAR-8 > 100 µM | BT-549 > 100 µM | EKVX 46.5 µM | SK-MEL-2 > 100 µM | Hs-578T > 100 µM | HOP-62 > 100 µM

O=C(CC(O)(C(F)(F)F)C(F)(F)F)c1cccs1
inactive: SNB-19 > 10 µM | M14 > 10 µM | OVCAR-4 > 10 µM | CAKI-1 > 10 µM | SK-MEL-5 > 10 µM | NCI/ADR-RES > 10 µM | CCRF-CEM > 10 µM | NCI-H23 > 10 µM | UACC-257 > 10 µM | LOX IMVI > 10 µM | T47D > 10 µM | HOP-92 > 10 µM | SNB-75 > 10 µM | K562 > 10 µM | U-251 > 10 µM | SF-268 > 10 µM | MDA-N > 10 µM | PC-3 > 10 µM | OVCAR-3 > 10 µM | SR > 10 µM | SN12C > 10 µM | IGROV-1 > 10 µM | MCF7 > 10 µM | COLO 205 > 10 µM | DU-145 > 10 µM | TK-10 > 10 µM | HL-60 > 10 µM | RPMI-8226 > 10 µM | SK-MEL-28 > 10 µM | KM12 > 10 µM | MOLT-4 > 10 µM | 786-0 > 10 µM | MDA-MB-435 > 10 µM | HT-29 > 10 µM | MDA-MB-231 > 10 µM | Malme-3M > 10 µM | SK-OV-3 > 10 µM | ACHN > 10 µM | SF-539 > 10 µM | SF-295 > 10 µM | HCC 2998 > 10 µM | SW-620 > 10 µM | HCT-116 > 10 µM | A549 > 10 µM | UACC-62 > 10 µM | OVCAR-8 > 10 µM | BT-549 > 10 µM | NCI-H522 > 10 µM | Hs-578T > 10 µM | HOP-62 > 10 µM
> 10 µM: HCT-15

OC1(c2ccccc2)CCN(Cc2c[nH]c3ccccc23)CC1
inactive: SNB-19 > 100 µM | M14 17.5 µM | OVCAR-4 > 100 µM | A498 92.3 µM | CAKI-1 > 100 µM | SK-MEL-5 36.3 µM | NCI/ADR-RES > 100 µM | CCRF-CEM > 100 µM | NCI-H23 96.6 µM | UACC-257 18.3 µM | LOX IMVI 76.4 µM | T47D 35.6 µM | HOP-92 > 100 µM | SNB-75 > 100 µM | K562 33.2 µM | U-251 64.4 µM | SF-268 > 100 µM | MDA-N 30.7 µM | PC-3 > 100 µM | OVCAR-3 > 100 µM | NCI-H460 49.1 µM | SN12C > 100 µM | IGROV-1 > 100 µM | MCF7 50.5 µM | COLO 205 17.5 µM | DU-145 > 100 µM | RXF 393 63.2 µM | TK-10 > 100 µM | HL-60 48.2 µM | RPMI-8226 39.5 µM | SK-MEL-28 20.7 µM | UO-31 31 µM | KM12 75.3 µM | MOLT-4 39.2 µM | 786-0 44 µM | MDA-MB-435 37.2 µM | HT-29 42.9 µM | MDA-MB-231 81.3 µM | Malme-3M 23.2 µM | SK-OV-3 > 100 µM | ACHN > 100 µM | SF-539 79.3 µM | SF-295 92.7 µM | OVCAR-5 > 100 µM | HCC 2998 17.8 µM | SW-620 > 100 µM | NCI-H226 > 100 µM | HCT-116 40.5 µM | A549 > 100 µM | UACC-62 47.8 µM | OVCAR-8 > 100 µM | BT-549 > 100 µM | EKVX > 100 µM | NCI-H522 > 100 µM | SK-MEL-2 18 µM | Hs-578T > 100 µM | HOP-62 > 100 µM
49.5 µM: HCT-15

O=c1ccc2ccc(O)cc2o1 [UMBELLIFERONE]
inactive: SNB-19 > 100 µM | M14 > 100 µM | OVCAR-4 > 100 µM | A498 > 100 µM | CAKI-1 > 100 µM | SK-MEL-5 > 100 µM | NCI/ADR-RES > 100 µM | CCRF-CEM > 100 µM | NCI-H23 > 100 µM | UACC-257 > 100 µM | LOX IMVI > 100 µM | T47D > 100 µM | HOP-92 > 100 µM | SNB-75 > 100 µM | U-251 > 100 µM | SF-268 > 100 µM | MDA-N > 100 µM | PC-3 > 100 µM | OVCAR-3 > 100 µM | SN12C > 100 µM | IGROV-1 > 100 µM | MCF7 > 100 µM | COLO 205 > 100 µM | DU-145 > 100 µM | RXF 393 > 100 µM | TK-10 > 100 µM | HL-60 > 100 µM | RPMI-8226 > 100 µM | SK-MEL-28 > 100 µM | UO-31 > 100 µM | KM12 > 100 µM | MOLT-4 > 100 µM | 786-0 > 100 µM | MDA-MB-435 > 100 µM | HT-29 > 100 µM | MDA-MB-231 > 100 µM | Malme-3M > 100 µM | SK-OV-3 > 100 µM | ACHN > 100 µM | SF-539 > 100 µM | SF-295 > 100 µM | OVCAR-5 > 100 µM | HCC 2998 88.7 µM | SW-620 > 100 µM | NCI-H226 > 100 µM | HCT-116 > 100 µM | A549 > 100 µM | UACC-62 > 100 µM | OVCAR-8 > 100 µM | BT-549 > 100 µM | EKVX > 100 µM | NCI-H522 > 100 µM | SK-MEL-2 > 100 µM | Hs-578T > 100 µM | HOP-62 > 100 µM
> 100 µM: HCT-15
